Here are results for 102 compounds from ChEMBL document CHEMBL3507680, “University of Dundee, Gates Library screen for HepG2 cell viability”.

The nature of this data set: Human HepG2 cell viability assay in 384 well format. The data set is classed as toxicity, cell-based. Also noted: dose 125 nL, time 70.5 hour; concentration not given beside the values. The settings on record: HepG2 cells, read-out: Inhibition.
For the compound `COCC(=O)N1CCCCC1c1nc(N(C)C)ncc1-c1cc(C)no1` (configuration not stated), the cytotoxicity at 70.5 h came to 21.1%.

As to `CC1(Cc2ccc(Cl)cc2)Cc2cc(CCC(=O)O)ccc2O1` (configuration not stated), the cytotoxicity at 70.5 h is -6.16%.

In the case of `CC(C)N1CCCC(CCCc2ccccn2)(C(=O)O)C1` (configuration not stated), the cytotoxicity at 70.5 h is -14.7%.

Regarding `NC(=O)C1(c2cnccn2)CCCN1Cc1cc2ccccc2o1` (configuration not stated), the cytotoxicity at 70.5 h was -9.2%.

Take `COCC(=O)N1CCCC1c1ccnc(Nc2cnccn2)n1` (configuration not stated): the cytotoxicity at 70.5 h was -7.05%.

For the compound `CN(Cc1ccc(F)cc1)CC1(O)CCN(C(=O)c2ccccc2)C1` (configuration not stated), the cytotoxicity at 70.5 h was -2.54%.

For `CNc1cncc(C2CCCN2Cc2ccccc2OCC(=O)O)n1` (configuration not stated), the cytotoxicity at 70.5 h is -8.8%.

For the compound `Fc1ccc(CN2CCC(c3nccnc3-n3ccnc3)CC2)cc1`, the cytotoxicity at 70.5 h was 2.75%.

On to `NCc1cnn(-c2ccccc2C(=O)NCCCn2ccnc2)c1`, for which the cytotoxicity at 70.5 h was -6.34%.

Turning to `Nc1nc(C2CCN(C(=O)c3cncs3)CC2)cs1`, the cytotoxicity at 70.5 h is -2.63%.

With `COc1ccccc1C(=O)N1CC(Cc2nccc3ccn(C)c23)C1`, the cytotoxicity at 70.5 h was -0.41%.

On to `Oc1nc(N2CCOCC2)nc2c1CCN(Cc1cccnc1)CC2`, for which the cytotoxicity at 70.5 h is -1.7%.

Turning to `Cc1cc(C)cc(-c2ccc(CC3(C(=O)O)CCOCC3)cc2)c1`, the cytotoxicity at 70.5 h is 31.5%.

Regarding `CNc1cncc(C2CCCN(S(C)(=O)=O)C2)n1` (configuration not stated), the cytotoxicity at 70.5 h came to 0.632%.

For `CN1CCCC(Cc2ccnc3ccncc23)CC1` (configuration not stated), the cytotoxicity at 70.5 h was found to be 34.2%.

As to `CC1=NOC2(CCN(Cc3c[nH]c4ccccc34)CC2)C1`, the cytotoxicity at 70.5 h was -9.21%.

Consider `CC(C)CCN1CCC2(CC1)NCc1ccccc1NC2=O`, for which the cytotoxicity at 70.5 h was -7.94%.

`O=C1Nc2ccccc2CNC12CCN(CC1CC1)CC2`: the cytotoxicity at 70.5 h was -9.09%.

Take `CC(C)NC(=O)N1CCn2c(nnc2C2CCCN2)C1` (configuration not stated): the cytotoxicity at 70.5 h was -9.64%.

Take `O=C(Nc1ccccc1)N1CCn2c(nnc2C2CCNCC2)C1`: the cytotoxicity at 70.5 h is -9.29%.

Take `CC(C)NC(=O)c1cc(-c2ccc(S(C)(=O)=O)cc2)c2cnn(C)c2n1`: the cytotoxicity at 70.5 h was -0.443%.

In the case of `CC1(C(=O)NCc2cccc(C(F)(F)F)c2)CCOCC1`, the cytotoxicity at 70.5 h was -5.33%.

`CC1(C(=O)NCc2ccsc2)CCOCC1`: the cytotoxicity at 70.5 h is -8.16%.

On to `CC1(C(=O)NCCc2ccc(F)cc2)CCOCC1`, for which the cytotoxicity at 70.5 h was -7.61%.

As to `O=C(c1ccc(Cl)cc1)N1CCn2c(nn(-c3cccc(Cl)c3)c2=O)C1`, the cytotoxicity at 70.5 h was -6.26%.

As to `Cc1ccc(-n2nc3n(c2=O)CCN(C(=O)c2ccc(Cl)cc2)C3)cc1`, the cytotoxicity at 70.5 h is -10.2%.

As for `CC(C)NC(=O)N1CCC2(CC1)CN(C(=O)NC(C)C)CCO2`, the cytotoxicity at 70.5 h was -10.3%.

As to `O=C(C1CCCC1)N1CC2(CCNC2)OCc2ccccc21` (configuration not stated), the cytotoxicity at 70.5 h is -9.78%.

`O=C(c1ccccc1)N1CC2(CCNC2)OCc2ccccc21` (configuration not stated): the cytotoxicity at 70.5 h was -9.98%.

Regarding `O=C(NC1CC1)C1CCc2nnc(-c3cccnc3)n21` (configuration not stated), the cytotoxicity at 70.5 h was -7.6%.

Turning to `COc1ccccc1-c1nc(C(=O)N2CCOCC2)n2ccncc12`, the cytotoxicity at 70.5 h is -9.1%.

`Cn1nc(C2CCCN2)c2c(C(=O)NC3CC3)cc(C3CC3)nc21` (configuration not stated): the cytotoxicity at 70.5 h came to 20%.

Take `Cn1nc(C2CCCNC2)c2c(C(=O)NC3CC3)cc(C3CC3)nc21` (configuration not stated): the cytotoxicity at 70.5 h came out at 13.4%.

For `CS(=O)(=O)N1CC2(CCCN2Cc2ccc(Cl)cc2)Cc2ccccc21` (configuration not stated), the cytotoxicity at 70.5 h was determined as 7.7%.

Consider `CC(=O)N1CC2(CCN(Cc3ccc(Cl)cc3)C2)Cc2ccccc21` (configuration not stated), for which the cytotoxicity at 70.5 h was determined as 5.14%.

For `O=C(NCc1nnc2n1C(C(=O)NC1CC1)CC2)c1ccc(Cl)cc1Cl` (configuration not stated), the cytotoxicity at 70.5 h is 4.24%.

With `O=S1(=O)NC2(CCCN(CCc3ccccc3)C2)COc2ccccc21` (configuration not stated), the cytotoxicity at 70.5 h is 0.68%.

As for `CC(=O)N1CCN(c2ccc(Cl)nn2)C(=O)C1`, the cytotoxicity at 70.5 h was -7.52%.

For `CC(C)NC(=O)N1CCN(c2ccc(Cl)nn2)C(=O)C1`, the cytotoxicity at 70.5 h is -4.88%.

In the case of `O=C(N1CCCC1)N1CCN(c2ccc(Cl)nn2)C(=O)C1`, the cytotoxicity at 70.5 h was -7.98%.

Take `Cc1ccc(CN2CCCC23Cc2ccccc2CNC3=O)cc1` (configuration not stated): the cytotoxicity at 70.5 h was found to be 21.9%.

Take `CS(=O)(=O)N1Cc2ccccc2CC2(CCN(Cc3ccccc3)C2)C1` (configuration not stated): the cytotoxicity at 70.5 h was -9.03%.

For `CS(=O)(=O)N1CC2(CCN(Cc3ccccn3)C2)Cc2ccccc21` (configuration not stated), the cytotoxicity at 70.5 h is -8%.

With `CS(=O)(=O)N1CC2(CCN(CC3CC3)C2)Cc2ccccc21` (configuration not stated), the cytotoxicity at 70.5 h was -6.8%.

Consider `CS(=O)(=O)N1CC2(CCN(C3CCCCC3)CC2)Cc2ccccc21`, for which the cytotoxicity at 70.5 h was -7.63%.

For the compound `O=C1Nc2ccccc2CN(C/C=C/c2ccccc2)C12CCNC2` (configuration not stated), the cytotoxicity at 70.5 h is 2.42%.

Take `CCCN1Cc2ccccc2NC(=O)C12CCNC2` (configuration not stated): the cytotoxicity at 70.5 h is -1.87%.

On to `O=C1NCc2ccccc2CC12CCN(Cc1ccccc1Cl)CC2`, for which the cytotoxicity at 70.5 h was -3.39%.

On to `COc1ccccc1CN1CCCC2(Cc3ccccc3CNC2=O)C1` (configuration not stated), for which the cytotoxicity at 70.5 h is -1.54%.

Take `O=C(O)c1ccccc1CN1CCC2(Cc3ccccc3CNC2=O)C1` (configuration not stated): the cytotoxicity at 70.5 h was -5.35%.

With `O=C1NCc2ccccc2CC12CCCN(CCCc1ccccc1)C2` (configuration not stated), the cytotoxicity at 70.5 h is -3.38%.

As to `Cc1cccc(CN2CCCC3(Cc4ccccc4CNC3=O)C2)n1` (configuration not stated), the cytotoxicity at 70.5 h is -5.77%.

`Cn1nc(C2CCNC2)c2c(C(=O)NCC(F)(F)F)cc(C3CC3)nc21` (configuration not stated): the cytotoxicity at 70.5 h is -7.49%.

On to `O=C(c1ccc(Cl)cc1)N1CCC(N2CCCNC2=O)CC1`, for which the cytotoxicity at 70.5 h is -6.78%.

In the case of `O=C(c1ccc(Cl)cc1)N1CCC(N2CCCCC2=O)CC1`, the cytotoxicity at 70.5 h is -7.46%.

For the compound `O=C(c1ccc(Cl)s1)N1CCC2(CNS(=O)(=O)c3cnccc3O2)C1` (configuration not stated), the cytotoxicity at 70.5 h amounted to 19.5%.

Turning to `O=C(c1cccnc1)N1CCC2(CNS(=O)(=O)c3cnccc3O2)C1` (configuration not stated), the cytotoxicity at 70.5 h was found to be 17.8%.

Regarding `CC(C)NC(=O)N1CCC(c2nnc3n2CCNC3)CC1`, the cytotoxicity at 70.5 h came out at 16.3%.

As for `O=S1(=O)NCC2(CCCN(Cc3ccccn3)C2)Oc2ncccc21` (configuration not stated), the cytotoxicity at 70.5 h was found to be 30.8%.

Take `CN1CCC2(Cc3ccccc3CN(C(=O)Cc3cccc(Cl)c3)C2)C1` (configuration not stated): the cytotoxicity at 70.5 h was found to be 30.2%.

As to `CCCC(=O)N1Cc2ccccc2CC2(CCN(C)C2)C1` (configuration not stated), the cytotoxicity at 70.5 h amounted to 22.5%.

As for `O=C1Nc2ccccc2CC12CCCN2Cc1ccc(F)cc1` (configuration not stated), the cytotoxicity at 70.5 h came to 9.33%.

As to `O=C1Nc2ccccc2CC12CCCN2Cc1cccnc1` (configuration not stated), the cytotoxicity at 70.5 h was -2.78%.

`CC(C)NC(=O)C1CCc2nnc(C(C)(C)C)n21` (configuration not stated): the cytotoxicity at 70.5 h is -5.68%.

As to `CN1CC(=O)N(C2CCNCC2)Cc2c(NC3CCC3)ncnc21`, the cytotoxicity at 70.5 h is -7.06%.

Regarding `Cc1nc(C(NC(=O)CN(C)C(C)C)c2ccccc2F)no1` (configuration not stated), the cytotoxicity at 70.5 h is -4.07%.

`COc1cc(Br)c(CNc2ccn(CCC(N)=O)n2)cc1OC`: the cytotoxicity at 70.5 h is -4.79%.

With `Cn1cc(N2CCN(c3ccc(C#N)cc3F)CC2=O)cn1`, the cytotoxicity at 70.5 h was -3.17%.

For the compound `NC(=O)NC1(C(=O)N2CCc3c(Cl)cccc3C2)CCCCC1`, the cytotoxicity at 70.5 h was 8.62%.

Turning to `CN(Cc1nc2ccccc2[nH]1)C(=O)CN(C)c1ccccc1`, the cytotoxicity at 70.5 h was -2.68%.

Take `NC(=O)NC1CCN(Cc2ccc3c(c2)CCC3)CC1`: the cytotoxicity at 70.5 h was -5.94%.

For `CC(C)(C)NC(=O)c1cnc2n1CCCC2`, the cytotoxicity at 70.5 h was -6.71%.

With `Cc1ccc(F)c(CNc2ccn(CCC(N)=O)n2)c1`, the cytotoxicity at 70.5 h was determined as 3.53%.

`CN(Cc1cc(Br)cn1C)C(=O)Cc1cccnc1`: the cytotoxicity at 70.5 h is -9.83%.

Regarding `COc1ccc2c(c1)CCCC2CC(=O)NCC(=O)O` (configuration not stated), the cytotoxicity at 70.5 h is -4.55%.

Regarding `Cn1ccc(N2CCCC(NC(=O)c3ccc(Cl)o3)C2=O)n1` (configuration not stated), the cytotoxicity at 70.5 h was -10.2%.

With `COc1ccc2c(c1)CCCC2CC(=O)NCC(C)(C)C(=O)O` (configuration not stated), the cytotoxicity at 70.5 h is -10.7%.

Take `CCC(C)(CC(=O)OC)NCc1nc(C)no1` (configuration not stated): the cytotoxicity at 70.5 h stood at 28.3%.

As to `CCC(C)(CC(=O)OC)NCc1cc(C)on1` (configuration not stated), the cytotoxicity at 70.5 h was -11%.

Turning to `CN1CCN(C(=O)C2(S(C)(=O)=O)CCCC2)Cc2ccccc21`, the cytotoxicity at 70.5 h is -13.4%.

As for `N#Cc1cccc(NC(=O)N[C@H](CO)Cc2ccc(O)cc2)c1`, the cytotoxicity at 70.5 h was -9.73%.

Consider `Cc1cc(N2CCCC2c2cccnc2)nc(C)n1` (configuration not stated), for which the cytotoxicity at 70.5 h came to 5.57%.

For `CCN1CCN2CCCN(S(=O)(=O)c3ccc(C)cc3C)C2C1=O` (configuration not stated), the cytotoxicity at 70.5 h was -4.62%.

For `CCN1CCN2CCCN(S(=O)(=O)c3ccc(S(C)(=O)=O)cc3)C2C1=O` (configuration not stated), the cytotoxicity at 70.5 h was -7.94%.

Turning to `COCCn1cc(NC(=O)N(CCC(N)=O)Cc2ccccc2)cn1`, the cytotoxicity at 70.5 h is -14.4%.

On to `O=C(CS(=O)(=O)Cc1cccc(Br)c1)Nc1cn[nH]c1`, for which the cytotoxicity at 70.5 h was -2.81%.

With `CCOC1CCN(C(=O)NCc2ccc(C(=O)N(C)C(C)C)cc2)CC1`, the cytotoxicity at 70.5 h is -18.5%.

`Cc1cccc(S(=O)(=O)NCc2cccc(CS(C)(=O)=O)c2)c1`: the cytotoxicity at 70.5 h worked out at 9.39%.

In the case of `CCNC(=O)C(C)NC(=O)Nc1ccccc1SC(F)(F)F` (configuration not stated), the cytotoxicity at 70.5 h was -10.8%.

As for `CCNC(=O)C(C)NC(=O)Nc1ccccc1SCC` (configuration not stated), the cytotoxicity at 70.5 h was -16.9%.

For `Cc1nc(C(=O)N(C)CC(F)(F)C(F)(F)F)c2ccccn12`, the cytotoxicity at 70.5 h was -13.5%.

Consider `CCn1ccnc1CN1CCN(c2nccc(OC)n2)CC1C` (configuration not stated), for which the cytotoxicity at 70.5 h worked out at 18.6%.

`Cn1c(CCCNC(=O)Nc2cn[nH]c2)nc2ccccc21`: the cytotoxicity at 70.5 h is -3.29%.

On to `CCc1ccc(CNc2cc(-c3ccoc3C)nn2CCO)o1`, for which the cytotoxicity at 70.5 h was -18.9%.

For the compound `CN1CCc2ccc(NCc3cscn3)cc2C1=O`, the cytotoxicity at 70.5 h is 2.5%.

On to `CC(C)NC(=O)NC(=O)C(C)N1CCN(C2CCN(C(C)C)CC2)CC1` (configuration not stated), for which the cytotoxicity at 70.5 h was -3.33%.

`COCCCC(=O)Nc1cccnc1N1CCCCC1`: the cytotoxicity at 70.5 h was -10.4%.

In the case of `CCc1nnc(NC(=O)N(CCOC)Cc2ccc(C)o2)s1`, the cytotoxicity at 70.5 h is 14.4%.

Consider `COC1CCN(S(=O)(=O)N2CCCC2c2ccco2)CC1` (configuration not stated), for which the cytotoxicity at 70.5 h was determined as 0.386%.

For `CCCN(Cc1ccccc1O)C(=O)Nc1cnn(CCOC)c1`, the cytotoxicity at 70.5 h was -12.8%.

For the compound `c1cnc2nc(C3CCNCC3)[nH]c2c1`, the cytotoxicity at 70.5 h is -11.9%.

As for `CNCC(=O)N1CCC(c2ccnc(Nc3ccc(C)cn3)n2)C1` (configuration not stated), the cytotoxicity at 70.5 h was -1.4%.
